Measurements taken from patent publication US9365851B2, “Spalt-like transcription factor 4 (SALL4) and uses thereof” (National University of Singapore, priority 2011, dated 2016).

Key:
[1] = test system: NP4; test: Cellular uptake of FITC-labeled peptide; format: cell-based
Experimental: (§1) Cells were grown typically in 6 well plates (35 mm dish) to 50-70% confluence. Usually the transfect ion efficiency is somehow cell type specific. 2 mM peptide was diluted 4 times in PBS (2 ul+6 ul) (For FITC peptidedo not dilute the 2 mM stock). For each transfection reaction tube with 100 ul PBS+1 ul diluted peptide was set up. Chariot reagent was diluted 1:10 in ddH2O and for each transfection a 94 ul H2O tube+6 ul diluted Chariot was prepared (No master mix for more than 4 transfections). The 2 tubes were carefully mixed by pipetting up and down and incubated 30 min. at room temperature. Medium was aspirated from the dish (well) and cells were overlay with the mix. 400 ul serum free medium was added and cells were incubated further for 1 h 37 C (cell incubator). 500 ul complete medium (with 10% serum) was finally added. If cells are not very sensitive to serum starvation (cancer cell lines) 5% serum could be used.
(§2) Fluorescent and Confocal microscopy was performed on cells treated with FITC labeled peptides with or without of transfection reagent depending on the cell type. Cells were mounted on cover slips using mounting media with DAPI (Invitrogen) and in some cases cytoskeleton dye (Invitrogen).
(§3) In order to evaluate their cellular uptake and localization, the N terminus of these peptides was labeled with fluorescein isothiocyanate (FITC). Despite the net positive charge of these peptides, their uptake by the cells is cell-type specific. Some cell lines such as HL-60 (an AML cell line) allowed the peptide to enter the cells without any modification or carrier, and some cell lines were not penetrable at all. In order to achieve a similar level of peptide delivery in most cell types, a Chariot Transfection Reagent (Active Motif) was used as a peptide carrier, as directed from the manufacturer. All cell types used in the study described herein were subjected to individual evaluation of the percentage of the cells in which the peptide was delivered as well as the duration of time during which they sustained the labeled peptide in the cells. After Chariot treatment, confocal microscopy studies confirmed uptake of these peptides throughout the cell, including nuclei (as evidenced by DAPI overlay, FIG. 1B).

[2] = test system: HeLa; test: Cellular uptake of FITC-labeled peptide; format: cell-based
Experimental: as §1, §2, §3

[3] = test system: MCF7; test: Cellular uptake of FITC-labeled peptide; format: cell-based
Experimental: as §1, §2, §3

[4] = test system: KG1a; test: Cellular uptake of FITC-labeled peptide; format: cell-based
Experimental: as §1, §2, §3

[5] = test system: CD34+; test: Cellular uptake of FITC-labeled peptide; format: cell-based
Experimental: as §1, §2, §3

[6] = test system: AML3; test: Cellular uptake of FITC-labeled peptide; format: cell-based
Experimental: as §1, §2, §3

[7] = test system: AN3CA cells; test: Cell viability assay (MTT/MTS); format: cell-based, human; details: AN3CA (high SALL4, no PTEN)
Experimental: Cell viability assay (MTT) (Invitrogen) was performed according to the manufacturer's instructions. Briefly—10000 cells were seeded in 100 ul medium in 96 well plates. The next day cells were treated as indicated on the figures. At the designated time after the treatment 20 ul of 5 mg/ml MTT solution was added to each well. After 3.5 h incubation at 37 C the medium was removed and the reaction was terminated with a solution of 4 mM HCl, 0.1% Nondet P-40 (NP40) all in isopropanol in dark on orbital shaker for […]. at room temperature. The absorbance was read at 590 nm with a reference filter of 620 nm in Spectromax M3 (ABI) spectrophotometer.
Multiple leukemic and solid tumor cancer cell lines with high or low/no SALL4 expression (FIG. 10A) were chosen to test the biological effect(s) of the wild type peptide. Wild type or scrambled peptide was delivered into tumor cells at various concentrations, and their effects on cells were evaluated 72 hours post-treatment by the MTS cell viability assay. […] The effect of wild type peptide is SALL4-specific, as it had no effect on KBM5, an AML cell line with undetectable endogenous SALL4 expression. We were surprised to see that the wild type peptide had no effect on a high SALL4-expressing endometrioid cancer cell line, AN3CA. […] Therefore, expression of PTEN was evaluated in AN3CA cells along with other cell lines. […]

[8] = test system: HuH-7; test: Cellular uptake of FITC-labeled peptide; format: cell-based, human
Experimental: as §1, §2, §3

[9] = test system: SNU387; test: Cellular uptake of FITC-labeled peptide; format: cell-based, human
Experimental: as §1, §2, §3

[10] = test system: AML; test: Cellular uptake of FITC-labeled peptide; format: cell-based, human
Experimental: as §1, §2, §3

[11] = test system: HL60; test: Cellular uptake of FITC-labeled peptide; format: cell-based, human
Experimental: as §1, §2, §3

peptide uptake (cells with peptide) ([1]; NP4, no carrier): >1% | peptide uptake (cells with peptide) ([1]; NP4, with Chariot): >5% | peptide uptake (cells with peptide) ([2]; no carrier): 0% | peptide uptake (cells with peptide) ([2]; with Chariot): 80% | peptide uptake (cells with peptide) ([3]; MCF7, no carrier): ~50% | peptide uptake (cells with peptide) ([3]; MCF7, with Chariot): 70% | peptide uptake (cells with peptide) ([4]; no carrier): >10% | peptide uptake (cells with peptide) ([4]; with Chariot): 60% | peptide uptake (cells with peptide) ([5]; no carrier): 0% | peptide uptake (cells with peptide) ([5]; with Chariot): 50% | peptide uptake (cells with peptide) ([6]; AML3, no carrier): ~5% | peptide uptake (cells with peptide) ([6]; AML3, with Chariot): 50% | peptide uptake (cells with peptide) ([8]; HuH-7, no carrier): 0% | peptide uptake (cells with peptide) ([8]; HuH-7, with Chariot): 60% | peptide uptake (cells with peptide) ([9]; SNU387, no carrier): 0% | peptide uptake (cells with peptide) ([9]; SNU387, with Chariot): 40% | peptide uptake (cells with peptide) ([10]; no carrier): 0% | peptide uptake (cells with peptide) ([10]; with Chariot): 50% | peptide uptake (cells with peptide) ([11]; HL60, no carrier): ~50% | peptide uptake (cells with peptide) ([11]; HL60, with Chariot): 70%
Substance: H-MSRRKQAKPQHI-OH [wt peptide, MSRRKQAKPQHI]
cell viability [7]: had no effect
